“And” between values parts separate entries of the source, which are not always exact repeats. Equal values may be shown once. Read-outs that look alike come from different tables or passages of the source.
What was measured:
MCF-7 = assay: MTT cell viability assay MCF-7; format: cell-based, human; details: Homo sapiens, MCF7, 48 h
Procedure: Cell viability was evaluated using an MTT colorimetric assay. Cells were seeded (10^5 cells/mL) in 96-well plates and allowed to grow overnight at 37 ℃ with 5% CO2 in a cell-culture incubator. On the following day, the cells were treated with small molecules at different concentrations (0.2–10 micro-molar) or vehicle (DMSO). Cells were then further incubated for 48 h.

[1] = rat, in vivo
[2] = Body weight, biochemical and haematological parameters in DHT-induced AGA mice (0.5% testosterone then topical treatment); format: in vivo, C57BL/6J mice; details: for Weight of C57BL/6J mice: individual mice; for LYMPH: unit assumed
Procedure: The experiments were performed on C57BL/6 J and Athymic nude mice (NU/J Foxn1^nu) of 6–7 weeks of age obtained from Animal House Facility, CSIR-Indian Institute of Integrative Medicine (IIIM), Jammu, India. […] The animals were provided with ad libitum feed (standard pellet diet) and autoclaved RO water throughout the study. The body weight of mice was measured after seven days before treatment.
C57BL/6 J mice (male) were obtained from CSIR-IIIM Animal House at 7 weeks of age. We used a DHT-induced AGA mice model for this study. […] At the end of the experiment, skin samples were collected and preserved in 10% neutral buffered formalin for tissue sectioning and staining using haematoxylin and eosin (H&E). The histopathological examinations were performed under the 10× and 40× objectives of light microscope (Magnus, Mx21i).
Every two weeks during the experimental period, mice were anesthetized, and the blood samples were collected into tubes containing heparin sodium to detect the total and differential white blood cells, haemoglobin, red blood cell, platelet count, mean corpuscular haemoglobin, mean corpuscular volume, red blood cell volume, mean platelet volume, and analyzed using an automated haematology analyzer (Model: XT1800i; Make: Sysmex).
Every two weeks during the experimental period, mice and rats were anesthetized, and blood samples were collected into non-heparinized tubes and then centrifuged at 1000 rpm at 4 °C for 10 min to obtain the serum. The biochemical parameters, including total protein, aspartate aminotransferase, alanine aminotransferase, total protein, albumin, total bilirubin, direct bilirubin, glucose, total cholesterol, triglyceride, low-density lipoprotein, high-density lipoprotein, creatinine, and uric acid, were measured using an automatic biochemical analyzer (Model: EM360; Make: Erba Mannheim).

## Fc1ccc(-c2cnc3[nH]cc(-c4ccnc(NC5CC5)n4)c3c2)cc1 [MJ04]
MCF-7
  IC50: 4.47 µM
[1]; Wistar, 14 days
  Globally Harmonized Classification System (GHS) category: Category-5
[1]; 2000 mg/kg
  ALB: 4.37 ± 2.09 g/dL
  ALP: 380.33 ± 161.30 U/L
  ALT: 77.33 ± 3.93 U/L
  AST: 183.63 ± 16.64 U/L
  BUN: 13.99 ± 2.92 mg/dL
  CR: 0.71 ± 0.18 mg/dL
  Ca: 11.90 ± 0.36 mg/dL
  GLB: 3.21 ± 0.09
  Glucose: 91.13 ± 17.80 mg/dL
  Na: 145.57 ± 1.71 mM
  P: 4.84 ± 1.10 mg/dL
  TB: 0.11 ± 0.03 mg/dL
  TG: 75.33 ± 8.33 mg/dL
  TP: 7.05 ± 0.25 g/dL
  Urea: 36.57 ± 8.43 mg/dL
[2]; 0.016 mg/Kg, DAY 1, in g (unit assumed)
  Weight of C57BL/6J mice: 27.2 and 23.8 and 24.6 and 24.7 and 25.6 and 25.7 and 25.8
[2]; 0.016 mg/Kg, DAY 7
  Weight of C57BL/6J mice: 28.1 and 25.1 and 26.1 (2×) and 26.9 and 27.1 and 27.3
[2]; 0.016 mg/Kg, DAY 14, in g (unit assumed)
  Weight of C57BL/6J mice: 29.3 and 26.4 and 27.3 and 27.4 and 28.1 and 28.4 and 28.7
[2]; 0.016 mg/Kg, DAY 21, in g (unit assumed)
  Weight of C57BL/6J mice: 27.6 and 28.7 and 28.9 and 29.7 and 30.1 and 30.4
[2]; 0.016 mg/Kg, DAY 28
  Weight of C57BL/6J mice: 30.3 and 30.4 (2×) and 31.6 and 31.7
[2]; 0.04 mg/Kg, DAY 1
  Weight of C57BL/6J mice: 24.2 and 24.6 and 25.6 (2×) and 25.7 and 25.8 and 26.3 and 27.4
[2]; 0.04 mg/Kg, DAY 7, in g (unit assumed)
  Weight of C57BL/6J mice: 26.1 and 26.3 and 26.4 and 26.7 and 26.9 and 27.1 and 27.2 and 28.7
[2]; 0.04 mg/Kg, DAY 14
  Weight of C57BL/6J mice: 28.1 and 28.3 (2×) and 28.5 and 28.6 and 28.7 and 29.6
[2]; 0.04 mg/Kg, DAY 21
  Weight of C57BL/6J mice: 29.4 and 29.7 and 29.8 and 30.1 and 30.4 (2×)
[2]; 0.04 mg/Kg, DAY 28
  Weight of C57BL/6J mice: 30.3 and 31.2 (2×) and 31.3 and 31.5
[2]; 0.08 mg/Kg, DAY 1
  Weight of C57BL/6J mice: 24.8 and 25.4 (2×) and 26.4 (2×) and 24.2 and 25.6 and 25.9
[2]; 0.08 mg/Kg, DAY 7
  Weight of C57BL/6J mice: 26.7 (3×) and 25.5 and 27.3 and 27.5 and 28.37 and 25.7
[2]; 0.08 mg/Kg, DAY 14
  Weight of C57BL/6J mice: 27.6 and 28.1 (2×) and 28.4 and 27.1 and 29.3 and 27.4
[2]; 0.08 mg/Kg, DAY 21
  Weight of C57BL/6J mice: 29.4 (2×) and 29.7 and 30.1 and 30.7 and 28.6
[2]; 0.08 mg/Kg, DAY 28
  Weight of C57BL/6J mice: 30.3 and 31.2 and 31.3 (2×) and 30.2
[2]; Day 21, 0.016 mg/Kg
  ALP: 99 U/L
  ALT/SGPT: 86 U/L
  AST/SGOT: 143 U/L
  Cholesterol: 154 mg/dL
  Creatine: 0.72 mg/dL
  HCT: 48%
  HDL: 112 mg/dL
  HGB: 14 g/dL
  LDL: 103 mg/dL
  MCHC: 29 g/dL
  MCV: 50 fL
  NEUT: 25.7%
  PLT: 1105 103/μl
  RBC: 9.7 1012/l
  Total protein: 5.2 g/dL
  Triglyceride: 114 mg/dL
  Urea: 55 mg/dL
  WBC: 6.5 103/μl
  LYMPH: 73.3%
[2]; Day 21, 0.04 mg/Kg
  ALP: 121 U/L
  ALT/SGPT: 74 U/L
  AST/SGOT: 148 U/L
  Cholesterol: 138 mg/dL
  Creatine: 0.69 mg/dL
  HCT: 46%
  HDL: 111 mg/dL
  HGB: 13 g/dL
  LDL: 101 mg/dL
  MCHC: 29 g/dL
  MCV: 50 fL
  NEUT: 39.4%
  PLT: 899 103/μl
  RBC: 9.0 1012/l
  Total protein: 4.9 g/dL
  Triglyceride: 127 mg/dL
  Urea: 49 mg/dL
  WBC: 3.0 103/μl
  LYMPH: 60.3%
[2]; Day 21, 0.08 mg/Kg
  ALP: 111 U/L
  ALT/SGPT: 58 U/L
  AST/SGOT: 114 U/L
  Cholesterol: 184 mg/dL
  Creatine: 0.49 mg/dL
  HCT: 36%
  HDL: 105 mg/dL
  HGB: 10 g/dL
  LDL: 102 mg/dL
  MCHC: 28 g/dL
  MCV: 50 fL
  NEUT: 32.4%
  PLT: 424 103/μl
  RBC: 6.9 1012/l
  Total protein: 5.2 g/dL
  Triglyceride: 108 mg/dL
  Urea: 71 mg/dL
  WBC: 3.3 103/μl
  LYMPH: 63%
[2]; Day 28, 0.016 mg/Kg
  ALP: 193 U/L
  ALT/SGPT: 85 U/L
  AST/SGOT: 75 U/L
  Cholesterol: 194 mg/dL
  Creatine: 0.20 mg/dL
  HCT: 46.0%
  HDL: 94 mg/dL
  HGB: 14 g/dL
  LDL: 109 mg/dL
  MCHC: 30.0 g/dL
  MCV: 63 fL
  PLT: 1727 103/μl
  RBC: 7.4 106/μl
  Total protein: 6.3 g/dL
  Triglyceride: 132 mg/dL
  Urea: 54 mg/dL
  WBC: 7.8 103/μl
[2]; Day 28, 0.04 mg/Kg
  ALP: 243 U/L
  ALT/SGPT: 69 U/L
  AST/SGOT: 107 U/L
  Cholesterol: 165 mg/dL
  Creatine: 0.14 mg/dL
  HCT: 46.0%
  HDL: 108 mg/dL
  HGB: 14 g/dL
  LDL: 91 mg/dL
  MCHC: 30.0 g/dL
  MCV: 62.0 fL
  PLT: 1687 103/μl
  RBC: 7.5 106/μl
  Total protein: 5.8 g/dL
  Triglyceride: 122 mg/dL
  Urea: 52 mg/dL
  WBC: 7.5 103/μl
[2]; Day 28, 0.08 mg/Kg
  ALP: 189 U/L
  ALT/SGPT: 63 U/L
  AST/SGOT: 113 U/L
  Cholesterol: 194 mg/dL
  Creatine: 0.13 mg/dL
  HCT: 52.0%
  HDL: 106 mg/dL
  HGB: 15 g/dL
  LDL: 78 mg/dL
  MCHC: 29.0 g/dL
  MCV: 61.0 fL
  PLT: 1362 103/μl
  RBC: 8.6 106/μl
  Total protein: 6.2 g/dL
  Triglyceride: 174 mg/dL
  Urea: 79 mg/dL
  WBC: 7.1 103/μl

From article PMC11025159 (Journal of Translational Medicine, 2024)
